The compounds below were run on α3β4*-nAChR (assay: 86Rb+ efflux nAChR functional assay, SH-SY5Y cells). Conditions: not given.
Assay type: cell-based, human
Description: Cell Lines and Culture: Human embryonic kidney (HEK-293) cells stably expressing human DAT, NET or SERT were maintained as previously described in Eshleman, A. J.; Carmolli, M.; Cumbay, M.; Martens, C. R.; Neve, K. A.; Janowsky, A., J. Pharmacol. Exp. Ther. 1999, 289, (2), 877-885. Use was made of several human cell lines that naturally or heterologously express specific, functional, human nAChR subtypes. Cells of the TE671/RD line naturally expresses muscle-type nAChR (a1β1γδ- or α1*-nAChR), and SH-SY5Y neuroblastoma cells naturally expresses autonomic α3β4*-nAChRs (containing α3, β4, probably α5, and sometimes β2 subunits). Different clones of SH-EP1 epithelial cell lines have been engineered to heterologously express either α4β2-nAChR, which are thought to be the most abundant, high affinity nicotine-binding nAChR in mammalian brain, or α4β4-nAChR, another possible brain nAChR subtype (SH-EP1-hα4β2 or α4β4 cells, respectively). These cells were maintained as low passage number (1-26 from our frozen stocks) cultures to ensure stable expression of native or heterologously-expressed nAChR as previously described (see Lukas, R. J.; Fryer, J. D.; Eaton, J. B.; L., G. C., Some methods for studies of nicotinic acetylcholine receptor pharmacology, in Nicotinic receptors and the Nervous System, Levine, E. D., Ed. CRC Press: Boca Raton, 2002; pp 3-27, incorporated herein by reference in its entirety). Cells were passaged once weekly by splitting just-confluent cultures 1/300 (TE671/RD), 1/5 (SH-SY5Y), or 1/20 (transfected SH-EP1) in serum-supplemented medium to maintain log-phase growth.
After cells had adhered (generally overnight, but no sooner than 4 h later), the medium was removed and replaced with 250 μL per well of complete medium supplemented with ˜350,000 cpm of ^86Rb^+ (PerkinElmer Life and Analytical Sciences, Boston, Mass.) and counted at 40% efficiency using Cerenkov counting (TriCarb 1900 liquid scintillation analyzer[…]; PerkinElmer Life Sciences).
After at least 4 h and typically overnight, ^86Rb^+ efflux was measured using the “flip-plate” technique. See Lukas, R. J.; Fryer, J. D.; Eaton, J. B.; L., G. C., Some methods for studies of nicotinic acetylcholine receptor pharmacology, in Nicotinic receptors and the Nervous System, Levine, E. D., Ed. CRC Press: Boca Raton, 2002; pp 3-27, incorporated herein by reference in its entirety). Briefly, after aspiration of the bulk of ^86Rb^+ loading medium from each well of the “cell plate,” each well containing cells was rinsed 3× with 2 mL of fresh ^86Rb^+ efflux buffer (130 mM NaCl, 5.4 mM KCl, 2 mM CaCl2, 5 mM glucose, 50 mM HEPES, pH 7.4) to remove extracellular ^86Rb^+. Following removal of residual rinse buffer by aspiration, the flip-plate technique was used again to simultaneously introduce 1.5 mL of fresh efflux buffer containing drugs of choice at indicated final concentrations from a 24-well “efflux/drug plate” into the wells of the cell plate. After a 5 min incubation, the solution was “flipped” back into the efflux/drug plate, and any remaining buffer in the cell plate was removed by aspiration. Cells remaining in the cell plate were lysed and suspended by addition of 1.5 mL of 0.1 M NaOH, 0.1% sodium dodecyl sulfate to each well.
Similarly, the sum of ^86Rb^+ in cell plates and efflux/drug plates also determined the efficiency of ^86Rb^+ loading (the percentage of applied ^86Rb^+ actually loaded into cells).
Specific efflux was then taken as the difference in control samples between total and non-specific ^86Rb^+ efflux. Any intrinsic agonist activity of test drugs was ascertained using samples containing test drug only at different concentrations and was normalized, after subtraction of non-specific efflux, to specific efflux in test drug-free, control samples.

Row | SMILES | selectivity for α3β4*- over α4β2-nAChR [fold]
1 | CC1NC(C)(C)COC1(O)c1ccc(Cl)c(Cl)c1 (racemic) [Compound 4n, 2-(3,4-Dichlorophenyl)-3,5,5-trimethylmorpholin-2-ol] | ~8

What follows are compounds tested on Male Institute of Cancer Research (ICR) mice (assay: Body temperature, antagonism of nicotine-induced hypothermia). Conditions: Mus musculus, 0.5 h, pretreatment 15 min before nicotine 2.5 mg/kg s.c., tested 30 min after nicotine, read-out: AD50 Hypothermia.
Assay type: in vivo
Description: Animals: Male Institute of Cancer Research (ICR) mice (weighing 20-25 g) obtained from Harlan (Indianapolis, Ind.) were used throughout the study. Animals were housed in an Association for Assessment and Accreditation of Laboratory Animal Care-approved facility, were placed in groups of six, and had free access to food and water. Studies were approved by the Institutional Animal Care and Use Committee of Virginia Commonwealth University.
Body Temperature: Rectal temperature was measured by a thermistor probe (inserted 24 mm) and digital thermometer (YSI Inc., Yellow Springs, Ohio). Readings were taken just before and 30 min after subcutaneous injection of either saline or 2.5 mg/kg nicotine. The difference in rectal temperature before and after treatment was calculated for each mouse. The ambient temperature of the laboratory varied from 21 to 24° C. from day to day. […] The animals were then tested 30 min after administration of a subcutaneous dose of 2.5 mg/kg nicotine.

Row | SMILES | ED50 [mg/kg]
2 | C[C@@H]1NC(C)(C)CO[C@@]1(O)c1cccc(F)c1 [Compound 4c, (2S,3S)-2-(3-Fluorophenyl)-3,5,5-trimethylmorpholin-2-ol] | 2.3 to 7
3 | C[C@@H]1NC(C)(C)CO[C@@]1(O)c1cccc(Br)c1 [Compound 4d, (2S,3S)-2-(3-Bromophenyl)-3,5,5-trimethylmorpholin-2-ol] | 1.7
4 | Cc1cccc([C@]2(O)OCC(C)(C)N[C@H]2C)c1 [Compound 4e, (2S,3S)-2-(m-Tolyl)-3,5,5-trimethylmorpholin-2-ol] | 2.3 to 7

Same assay, conditions: pretreatment 15 min before nicotine 2.5 mg/kg s.c., tested 30 min after nicotine

Row | SMILES | AD50 Hypothermia
5 | CC1NC(C)(C)COC1(O)c1ccc(Cl)c(Cl)c1 (racemic) [Compound 4n, 2-(3,4-Dichlorophenyl)-3,5,5-trimethylmorpholin-2-ol] | IA (IA: AD50 > 15 mg/kg)
6 | CC1NC(C)(C)COC1(O)c1cc(Cl)cc(Cl)c1 (racemic) [Compound 4p, 2-(3,5-Dichlorophenyl)-3,5,5-trimethylmorpholin-2-ol] | IA (IA: AD50 > 15 mg/kg)
7 | C[C@@H]1NC(C)(C)CO[C@@]1(O)c1ccccc1 [Compound 4b, (2S,3S)-2-Phenyl-3,5,5-trimethylmorpholin-2-ol] | IA (IA: AD50 > 15 mg/kg)
8 | COc1cccc([C@]2(O)OCC(C)(C)N[C@H]2C)c1 [Compound 4f, (2S,3S)-2-(3-Methoxyphenyl)-3,5,5-trimethylmorpholin-2-ol] | IA (IA: AD50 > 15 mg/kg)
9 | C[C@@H]1NC(C)(C)CO[C@@]1(O)c1ccc(Cl)cc1 [Compound 4i, (2S,3S)-2-(4-Chlorophenyl)-3,5,5-trimethylmorpholin-2-ol] | IA (IA: AD50 > 15 mg/kg)
10 | Cc1ccc([C@]2(O)OCC(C)(C)N[C@H]2C)cc1 [Compound 4j, (2S,3S)-3,5,5-Trimethyl-2-(4-methylphenyl)morpholin-2-ol] | IA (IA: AD50 > 15 mg/kg)
11 | COc1ccc([C@]2(O)OCC(C)(C)N[C@H]2C)cc1 [Compound 4k, (2S,3S)-2-(4-Methoxyphenyl)-3,5,5-trimethylmorpholin-2-ol] | IA (IA: AD50 > 15 mg/kg)
12 | C[C@@H]1NC(C)(C)CO[C@@]1(O)c1ccc(-c2ccccc2)cc1 [Compound 4l, (2S,3S)-2-Biphenyl-4-yl-3,5,5-trimethylmorpholin-2-ol] | IA (IA: AD50 > 15 mg/kg)
13 | C[C@@H]1NC(C)(C)CO[C@@]1(O)c1ccc(F)c(F)c1 [Compound 4m, (2S,3S)-2-(3,4-Difluorophenyl)-3,5,5-trimethylmorpholin-2-ol] | IA (IA: AD50 > 15 mg/kg)
14 | C[C@@H]1NC(C)(C)CO[C@@]1(O)c1cc(F)cc(F)c1 [Compound 4o, (2S,3S)-2-(3,5-Difluorophenyl)-3,5,5-trimethylmorpholin-2-ol] | IA (IA: AD50 > 15 mg/kg)
15 | C[C@@H]1NC(C)(C)CO[C@@]1(O)c1cccc2ccccc12 [Compound 4q, (2S,3S)-2-(Naphthalen-1-yl)-3,5,5-trimethylmorpholin-2-ol] | IA (IA: AD50 > 15 mg/kg)
16 | C[C@@H]1NC(C)(C)CO[C@@]1(O)c1ccc2ccccc2c1 [Compound 4r, (2S,3S)-2-(Naphthalen-2-yl)-3,5,5-trimethylmorpholin-2-ol] | IA (IA: AD50 > 15 mg/kg)
17 | C[C@@H]1N(C)C(C)(C)CO[C@@]1(O)c1cccc(Cl)c1 [Compound 4u, (2S,3S)-2-(3-Chlorophenyl)-3,4,5,5-tetramethylmorpholin-2-ol] | IA (IA: AD50 > 15 mg/kg)
18 | C[C@@H]1N(C)C(C)(C)CO[C@@]1(O)c1ccc(Cl)cc1 [Compound 4v, (2S,3S)-2-(4-Chlorophenyl)-3,4,5,5-tetramethylmorpholin-2-ol] | IA (IA: AD50 > 15 mg/kg)
